We go through three molecules from patent US9283198B2, “Materials and methods for treating viral infections” (priority 2005, dated 2016).

Molecules are shown by their SMILES. In brackets after ≈: the same amount, converted by molar mass. Structures can show the parent of a compound that is named as a salt. Where two headings read alike, the source gives them in different places.

Data set [1] concerns H5N1 avian influenza viruses CV strain. Put plainly: animal or person. The data set is classed as in vivo, H5N1 avian influenza virus. To be noted: for IC50: Influenza A virus.
Data set [2] has as its system embryonated hen eggs. To be noted: in vivo.
In data set [3] the test system is influenza virus. To be noted: in vivo, po.
Data set [4] has as its system H5N1 avian influenza virus, WV strain. To be noted: in vivo, po.
[5] abbreviates: H5N1, read-out: IC50 against H5N1 avian influenza virus.

Take `NCCS` [TG21, Cysteamine]: the IC50 in data set [1] (setting [5]) was 17.5 mg/mL (≈ 227 mM). The “IC50 against H5N1 avian influenza virus” value in data set [1] (in vivo) is 16.1 mg/mL (≈ 209 mM). Moreover, in data set [2] (chicken (hen) embryo), the “LD50 of TG21 to embryonated hen eggs” value is recorded as 32.1 mg/mL and the “dose below which no side-effect was found” value was “below 12.5 mg/mL”. The “toxicity at high doses” value in data set [2] was “some toxicity was detected”.
As to `NCCS` [cysteamine hydrochloride], in data set [3], the “time until symptoms associated with the influenza infection had disappeared” value is at most 24 h.
In the case of `CCOC(=O)C1=C[C@@H](OC(CC)CC)[C@H](NC(C)=O)[C@@H](N)C1` [TAMIFLU®, oseltamivir phosphate, reference compound], the IC50 in data set [1] (H5N1, read-out: IC50 (drug concentration required to survive 50% embryo)) turned out to be 25.1 mg/mL; in data set [1] (setting [5]), 19.4 mg/mL. Besides, in data set [4], the “protection rate in mice” value was found to be 60%.
